Tests used:
[1] = test system: Triethyltin-induced cerebral oedema; assay: Triethyltin-induced cerebral oedema in the rat; type: in vivo; details: 2×50 mg/kg orally, twice daily for 5 days of triethyltin intoxication; Wistar rats; brain water content; p<0.05 (student's t-test)
Procedure: The cerebral oedema is induced by oral administrations repeated for 5 consecutive days--one administration per day--of triethyltin chloride at a dose of 2 mg/kg. The test compound is also administered orally twice daily as aqueous solution or suspension at a dose of 1 ml/100 g body-weight; these administrations are given during the 5 days of intoxication with tin. Three groups of 10 male specific pathogen-free (SPF) Wistar rats of 280±10 g body-weight are used:
1 group intoxicated with triethyltin
1 group intoxicated with triethyltin and treated with the studied compound The rats are killed on the evening of the fifth day; the brain is removed, weighed fresh and after desiccation to constant weight and the water content of each brain is calculated [H2 O]=fresh weight-dry weight.
The following are then calculated the mean water content (M+Sm %) of each group; the protection index P due to the administered compound: [formula]

[2] = test system: recall latency in the gerbil following transient forebrain ischaemia; assay: Gerbil Ischaemic Deficit Passive Avoidance Test; type: in vivo, Mongolian gerbils; details: Ischaemia and Test Compound, 10 mg/kg p.o., seven administrations; gerbils after 5 min bilateral carotid ligation; significantly different from ischaemic controls (p<0.05)
Procedure: Mongolian gerbils were conditioned to avoid entering a dark compartment by means of a footshock (maximally 50 V, 2 s duration) received when entering from the light section of a two compartment box. Recollection of the footshock was examined 24 h later by replacing the gerbils in the two compartment box and measuring the recall latency, the time taken to re-enter the dark compartment.
A learning or memory deficit was induced in the gerbils by a transient (5 min) bilateral carotid artery ligation, performed 24 h prior to conditioning, under light hexobarbital anaesthesia.
Compounds, being examined for an effect on learning or memory in gerbils which had undergone carotid occlusion, were administered seven times during the experiment The initial administration was during the period of forebrain ischaemia, the third and seventh administrations were 10 min prior to conditioning and recall testing, respectively, and the remainder were given at intermediate time points.
A long recall latency indicates good information acquisition or retrieval.

[3] = test system: rat ischaemic gastrocnemius muscle; assay: Oxygen tension (pO2) of rat ischaemic gastrocnemius muscle; type: in vivo; details: 0.5 mg/kg administered intravenously; ischaemic hindlimb gastrocnemius muscle, anaesthetized rats; n=12; p<0.01 signed rank test
[4] = target: cAMP phosphodiesterase of rat brain; assay: Inhibitory activity on cAMP phosphodiesterase of rat brain (Dixon plot); type: biochemical; details: homogenates of rat brain; 0.31 μM cyclic AMP as substrate; extrapolated from Dixon plot; read-out: apparent Ki
Procedure: The activity of cyclic AMP phosphodiesterase in homogenates of rat brain was measured in the presence of various concentrations of the compound 1,3-di-n-butyl-7-(2-oxypropyl)xanthine using 0.31 μM cyclic AMP as substration The reciprocal of the reaction rate was plotted on the y axis against each concentration of the compound on the x axis (Dixon plot). The apparent Ki value was estimated by extrapolating the steeper linear portion of the Dixon plot to the x axis and obtaining the negative intercept on the x axis.

CCCCn1c(=O)c2c(ncn2CC(C)=O)n(CCCC)c1=O [1,3-di-n-butyl-7-(2-oxypropyl)xanthine]
protection index P [1]: 65% | Percentage of animals with recall latencies >60s [2]: 36 | mean (±SEM) increase in pO2 [3]: 5.7±2.1 torr | Ki [4]: 64 µM

— patent US4784999A, “Novel treatment” (Beecham Wuelfing GmbH & Co. KG, priority 1986, dated 1988)
